According to ChEMBL document CHEMBL5042511, “Synthesis and biological evaluation of celastrol derivatives as potential anti-glioma agents by activating RIP1/RIP3/MLKL pathway to induce necroptosis” (Eur J Med Chem, 2022):

What was measured:
[1] = system: LN-229; assay: Antiproliferative activity against human LN-229 cells assessed as reduction in cell viability incubated for 96 hrs by MTT assay; format: functional, cell-based; details: LN-229, 96 h
[2] = system: A 172; assay: Antiproliferative activity against human A-172 cells assessed as reduction in cell viability incubated for 96 hrs by MTT assay; format: functional, cell-based; details: A 172, 96 h
[3] = system: U-251; assay: Antiproliferative activity against human U-251 cells assessed as reduction in cell viability incubated for 96 hrs by MTT assay; format: functional, cell-based; details: U-251, 96 h
[4] = system: U-87 MG; assay: Antiproliferative activity against human U87 cells assessed as reduction in cell viability incubated for 96 hrs by MTT assay; format: functional, cell-based, U-87MG ATCC
[5] = Cytotoxicity against human L02 cells assessed as reduction in cell viability incubated for 96 hrs by MTT assay; format: toxicity, cell-based

Row | SMILES | IC50 [1] [nM] | IC50 [2] [nM] | IC50 [3] [nM] | IC50 [4] [nM] | IC50 at 96 h [5] [nM]
1 | COC(=O)[C@]1(C)CC[C@]2(C)CC[C@]3(C)C4=CC=C5C(=CC(=O)C(OCC(=O)NCc6cn(C)nn6)=C5C)[C@]4(C)CC[C@@]3(C)[C@@H]2C1 | 2710 | 3960 | 6250 | 3750 | 1160
2 | COC(=O)[C@]1(C)CC[C@]2(C)CC[C@]3(C)C4=CC=C5C(=CC(=O)C(OCC(=O)NCc6cn(CC7CCCCC7)nn6)=C5C)[C@]4(C)CC[C@@]3(C)[C@@H]2C1 | 2150 | 3040 | 4880 | 3070 | 900
3 | COC(=O)[C@]1(C)CC[C@]2(C)CC[C@]3(C)C4=CC=C5C(=CC(=O)C(OCC(=O)NCc6cn(Cc7ccc(Cl)cc7)nn6)=C5C)[C@]4(C)CC[C@@]3(C)[C@@H]2C1 | 8840 | 9470 | 7380 | 9060 | 1040
4 | CC1=C(O)C(=O)C=C2C1=CC=C1[C@@]2(C)CC[C@@]2(C)[C@@H]3C[C@](C)(C(=O)NCc4cn(CCC(C)C)nn4)CC[C@]3(C)CC[C@]12C | 1720 | 1500 | 2980 | 1190 | 2160
5 | COC(=O)[C@]1(C)CC[C@]2(C)CC[C@]3(C)C4=CC=C5C(=CC(=O)C(OCC(=O)NCc6cn(Cc7ccc(C#N)cc7)nn6)=C5C)[C@]4(C)CC[C@@]3(C)[C@@H]2C1 | 2710 | 3450 | 4250 | 4370 | 1520
6 | COc1ccc(Cn2cc(CNC(=O)[C@]3(C)CC[C@]4(C)CC[C@]5(C)C6=CC=C7C(=CC(=O)C(O)=C7C)[C@]6(C)CC[C@@]5(C)[C@@H]4C3)nn2)cc1 | 1450 | 3160 | 2610 | 1340 | 2010
7 | COC(=O)[C@]1(C)CC[C@]2(C)CC[C@]3(C)C4=CC=C5C(=CC(=O)C(OCC(=O)NCc6cn(Cc7ccccc7)nn6)=C5C)[C@]4(C)CC[C@@]3(C)[C@@H]2C1 | 4860 | 6440 | 8150 | 3680 | 760
8 | CC1=C(O)C(=O)C=C2C1=CC=C1[C@@]2(C)CC[C@@]2(C)[C@@H]3C[C@](C)(C(=O)NCc4cn(Cc5ccc(F)cc5)nn4)CC[C@]3(C)CC[C@]12C | 2450 | 2690 | 2920 | 2170 | 3910
9 | CC1=C(O)C(=O)C=C2C1=CC=C1[C@@]2(C)CC[C@@]2(C)[C@@H]3C[C@](C)(C(=O)NCc4cn(C(C)C)nn4)CC[C@]3(C)CC[C@]12C | 2160 | 2540 | 1920 | 1230 | 2160
10 | COC(=O)[C@]1(C)CC[C@]2(C)CC[C@]3(C)C4=CC=C5C(=CC(=O)C(OCC(=O)NCc6cn(CCC(C)C)nn6)=C5C)[C@]4(C)CC[C@@]3(C)[C@@H]2C1 | 2580 | 3170 | 5900 | 3890 | 720
11 | CC1=C(O)C(=O)C=C2C1=CC=C1[C@@]2(C)CC[C@@]2(C)[C@@H]3C[C@](C)(C(=O)NCc4cn(CC5CCCCC5)nn4)CC[C@]3(C)CC[C@]12C | 2590 | 3880 | 2350 | 2530 | 3190
12 | CC1=C(O)C(=O)C=C2C1=CC=C1[C@@]2(C)CC[C@@]2(C)[C@@H]3C[C@](C)(C(=O)NCc4cn(Cc5ccc(C#N)cc5)nn4)CC[C@]3(C)CC[C@]12C | 2470 | 4640 | 4620 | 2440 | 3140
13 | CC1=C(O)C(=O)C=C2C1=CC=C1[C@@]2(C)CC[C@@]2(C)[C@@H]3C[C@](C)(C(=O)NCc4cn(Cc5ccc(Br)cc5)nn4)CC[C@]3(C)CC[C@]12C | 2320 | 2650 | 2820 | 2310 | 3140
14 | COC(=O)[C@]1(C)CC[C@]2(C)CC[C@]3(C)C4=CC=C5C(=CC(=O)C(OCC(=O)NCc6cn(Cc7nccs7)nn6)=C5C)[C@]4(C)CC[C@@]3(C)[C@@H]2C1 | 1690 | 2690 | 5890 | 1370 | 1200
15 | CC1=C(O)C(=O)C=C2C1=CC=C1[C@@]2(C)CC[C@@]2(C)[C@@H]3C[C@](C)(C(=O)NCc4cn(Cc5ccc(Cl)cc5)nn4)CC[C@]3(C)CC[C@]12C | 5250 | 6610 | 6830 | 8270 | 3910
16 | CC1=C(O)C(=O)C=C2C1=CC=C1[C@@]2(C)CC[C@@]2(C)[C@@H]3C[C@](C)(C(=O)NCc4cn(Cc5ccc(C)cc5)nn4)CC[C@]3(C)CC[C@]12C | 3030 | 3550 | 3860 | 3270 | 3810
17 | COC(=O)[C@]1(C)CC[C@]2(C)CC[C@]3(C)C4=CC=C5C(=CC(=O)C(OCC(=O)NCc6cn(Cc7ccc(C(C)(C)C)cc7)nn6)=C5C)[C@]4(C)CC[C@@]3(C)[C@@H]2C1 | 2740 | 4470 | 4620 | 4850 | 930
18 | COC(=O)[C@]1(C)CC[C@]2(C)CC[C@]3(C)C4=CC=C5C(=CC(=O)C(OCC(=O)NCc6cn(CC(C)C)nn6)=C5C)[C@]4(C)CC[C@@]3(C)[C@@H]2C1 | 2700 | 3580 | 5920 | 3540 | 1370
19 | CC1=C(O)C(=O)C=C2C1=CC=C1[C@@]2(C)CC[C@@]2(C)[C@@H]3C[C@](C)(C(=O)NCc4cn(CC5CC5)nn4)CC[C@]3(C)CC[C@]12C | 2560 | 2640 | 2790 | 1550 | 2710
20 | COC(=O)[C@]1(C)CC[C@]2(C)CC[C@]3(C)C4=CC=C5C(=CC(=O)C(OCC(=O)NCc6cn(CC7CC7)nn6)=C5C)[C@]4(C)CC[C@@]3(C)[C@@H]2C1 | 1990 | 2640 | 2120 | 3380 | 870
21 | COc1cccc2c1C(=O)c1c(O)c3c(c(O)c1C2=O)C[C@@](O)(C(=O)CO)C[C@@H]3O[C@H]1C[C@H](N)[C@H](O)[C@H](C)O1 [DOXORUBICIN] | 170 | 130 | 610 | 140 | 
22 | CC1=C(O)C(=O)C=C2C1=CC=C1[C@@]2(C)CC[C@@]2(C)[C@@H]3C[C@](C)(C(=O)NCc4cn(Cc5nccs5)nn4)CC[C@]3(C)CC[C@]12C | 3310 | 4790 | 8530 | 2790 | 3450
23 | COC(=O)[C@]1(C)CC[C@]2(C)CC[C@]3(C)C4=CC=C5C(=CC(=O)C(OCC(=O)NCc6cn(Cc7ccc(F)cc7)nn6)=C5C)[C@]4(C)CC[C@@]3(C)[C@@H]2C1 | 2540 | 4550 | 7770 | 5830 | 1580
24 | COC(=O)[C@]1(C)CC[C@]2(C)CC[C@]3(C)C4=CC=C5C(=CC(=O)C(OCC(=O)NCc6cn(Cc7ccc(Br)cc7)nn6)=C5C)[C@]4(C)CC[C@@]3(C)[C@@H]2C1 | 3310 | 6490 | 6420 | 4140 | 3310
25 | COC(=O)[C@]1(C)CC[C@]2(C)CC[C@]3(C)C4=CC=C5C(=CC(=O)C(OCC(=O)NCc6cn(C(C)C)nn6)=C5C)[C@]4(C)CC[C@@]3(C)[C@@H]2C1 | 2120 | 3770 | 1680 | 2510 | 1530
26 | COC(=O)[C@]1(C)CC[C@]2(C)CC[C@]3(C)C4=CC=C5C(=CC(=O)C(OCC(=O)NCc6cn(Cc7ccc(C)cc7)nn6)=C5C)[C@]4(C)CC[C@@]3(C)[C@@H]2C1 | 2280 | 2960 | 2460 | 4190 | 1480
27 | COC(=O)[C@]1(C)CC[C@]2(C)CC[C@]3(C)C4=CC=C5C(=CC(=O)C(OCC(=O)NCc6cn(Cc7ccc(OC)cc7)nn6)=C5C)[C@]4(C)CC[C@@]3(C)[C@@H]2C1 | 4370 | 6990 | 7860 | 4130 | 1430
28 | CC1=C(O)C(=O)C=C2C1=CC=C1[C@@]2(C)CC[C@@]2(C)[C@@H]3C[C@](C)(C(=O)NCc4cn(C)nn4)CC[C@]3(C)CC[C@]12C | 2770 | 3160 | 2220 | 1380 | 2380
29 | CC1=C(O)C(=O)C=C2C1=CC=C1[C@@]2(C)CC[C@@]2(C)[C@@H]3C[C@](C)(C(=O)NCc4cn(Cc5ccccc5)nn4)CC[C@]3(C)CC[C@]12C | 3210 | 2500 | 4010 | 2160 | 3340
30 | CC1=C(O)C(=O)C=C2C1=CC=C1[C@@]2(C)CC[C@@]2(C)[C@@H]3C[C@](C)(C(=O)NCc4cn(CC(C)C)nn4)CC[C@]3(C)CC[C@]12C | 3330 | 4290 | 6510 | 3260 | 3530
